Reference: patent publication US6583118B1, “Chondroprotective agents” (Kureha Chemical Industry Co., Ltd., priority 1993, dated 2003)

Tests used:
[1] = test system: chondrocyte culture (derived from cartilage of rabbit shoulder and knee joints); test: Effect of test compounds on proteoglycan depletion in chondrocyte culture (PMA-induced, GAG content); type: cell-based, rabbit (New Zealand white Rabbits); conditions: for Relative amount of GAG: control without PMA = 100
Description: The cartilages were sterilely extracted from the shoulder and knee joints of rabbits (New Zealand white Rabbits) (body weight of 1 to 1.5 kg). The cartilages were thoroughly washed with PBS (−) (free of Ca^2+, Mg^2+), Hanks' solution and 0.1% EDTA-PBS (−), and then cut into small segments (1 mm×1 mm×1 mm). After PBS (−) containing 0.1% EDTA was added, the segments were allowed to stand in an incubator of 37° C. for 30 minutes. Then, the segments were treated with a trypsin solution (0.25%) at 37° C. for one hour to remove the connective tissue adhered to the cartilage. After the supernatant had been removed, the cartilages were treated for about 2 to 2.5 hours in a Ham F-12 medium containing 10% fetal bovine serum (FBS) and 0.2% collagenase. Then, the collagenase solution was centrifuged (1500 r.p.m.), and the residual chondrocytes were washed twice with a Ham F-12 medium (chondrocyte culture medium) containing 10% FBS. Finally, the resulting suspension was adjusted so that the chondrocytes were suspended in the concentration of 3×10^5 cells/ml in the chondrocyte culture medium. The chondrocytes were seeded in an amount of 1 ml/well on 24-well plates. The chondrocytes became confluent after 4 days. The experiment were performed within two weeks after reaching the confluent stage.
The chondrocyte culture medium which had been used for cultivating the chondrocytes was removed from each well and 800 μl of fresh serum-free S-Clone medium containing 0.1% human serum albumin was added. Further, 100 μl of S-Clone medium containing the compounds to be tested (containing the compound in the concentration of 10 fold the final concentration; DMSO concentration=2.5%) was added. The chondrocytes were cultured in the presence of carbon dioxide (5%) and air (95%) for 2 hours. Then, the proteoglycan depleting agent, PMA (phorbol myristate acetate) (final concentration=0.1 μg/ml) was added into the culture medium of the chondrocytes.
Proteoglycan depletion was determined by the measurement of the glycosaminoglycan (major constituent of proteoglycan, hereinafter referred to as GAG) content following digestion of the chondrocyte matrix with papain.
After 2 days, the supernatant of the chondrocyte culture was removed. Then, 1 ml of 0.03 […] papaine solution was added to the remaining chondrocyte matrix layer and a reaction was performed at 65° C. for 1 hour to liberate the GAG from the matrix layer. The content of the GAG in the treated papaine solution was determined by the 1,9-dimethylmethylene blue method (refer to R. W. Farndale, Biochim. Biophys. Acta., Vol. 883, pp. 173 to 177, 1986). The GAG content in the chondrocyte matrix of the control test wherein the proteoglycan depleting agent was not added was shown as “100”, and the relative amount of the GAG of each experiment except the control test was calculated by following formula:
GAG relative amount (%)=(B/A)×100
wherein A represents the GAG content of the control tests wherein the proteoglycan depleting agent was not added, and B represents the GAG content wherein the proteoglycan depleting agents were added alone or the GAG content wherein the proteoglycan depleting agents and the compounds to be tested were added.
The GAG content is the value of the mean value ± standard error (n=3 to 6). For each of the compounds to be tested, the control test and the proteoglycan depleting test wherein the proteoglycan depleting agent was added were carried out and the results thereof are also shown. The significance was determined by Student's t-test with respect to the proteoglycan depleting test wherein the proteoglycan depleting agent was added.

[2] = Acute toxicity, mouse LD50; type: in vivo; conditions: in vivo, oral administration
BALB/c mice = test: Observation for a week after oral administration to BALB/c mice; type: in vivo, mouse; conditions: 100 mg/kg
Description: The same results were obtained where hesperidin, acacetin, diosmetin, apigenin, luteolin, or kaempferol was administered.

Mouse = test: Acute toxicity, mouse LD50; type: in vivo; conditions: intravenous injection
[3] = PMA 0.1 μg/ml + test compound 100 μM, chondrocyte matrix after 2 days, mean ± standard error (n=3 to 6)
[4] = PMA 0.1 μg/ml + test compound 100 μM
[5] = BALB/c mice (female, seven weeks old), oral

Q: Which GAG content [1, 3] does the source give for `O=c1c(O)c(-c2ccc(O)c(O)c2)oc2cc(O)cc(O)c12` [No. 22, Quercetin] here?
A: 31.0 ± 0.6 µg/mL

Q: And the “Relative amount of GAG” value [1, 4]?
A: (55.3) %

Q: What about the LD50 [2] of the same compound?
A: 160 mg/kg

Q: For `COc1ccc(-c2cc(=O)c3c(O)cc(O[C@@H]4O[C@H](CO[C@@H]5O[C@@H](C)[C@H](O)[C@@H](O)[C@H]5O)[C@@H](O)[C@H](O)[C@H]4O)cc3o2)cc1` [No. 12, Linarin], which GAG content [1, 3] is on record?
A: 19.8 ± 0.7 µg/mL

Q: What about the “Relative amount of GAG” value [1, 4] of the same compound?
A: (35.8) %

Q: For `COc1ccc2c(c1)c(CC(=O)O)c(C)n2C(=O)c1ccc(Cl)cc1` [indometacin, Indometacin, reference compound], which “Relative amount of GAG” value ([1]; PMA 0.1 μg/ml + indometacin 10 μM) is on record?
A: (47.1) %

Q: What about the GAG content ([1]; PMA 0.1 μg/ml + indometacin 10 μM, mean ± standard error) of the same compound?
A: 13.2 ± 0.6 µg/mL

Q: What about the “Relative amount of GAG” value ([1]; PMA 0.1 μg/ml + indometacin 33 μM) of the same compound?
A: (41.8) %

Q: What about the GAG content ([1]; PMA 0.1 μg/ml + indometacin 33 μM, mean ± standard error) of the same compound?
A: 11.7 ± 0.8 µg/mL

Q: With `COc1ccc(-c2cc(=O)c3c(O)cc(O)cc3o2)cc1O` [No. 13, Diosmetin] as the compound, how does the GAG content [1, 3] read?
A: 27.1 ± 0.7 µg/mL

Q: What about the “Relative amount of GAG” value [1, 4] of the same compound?
A: (49.0) %

Q: What about the “abnormalities observed for a week after administration” value (“abnormalities observed for a week” below) (BALB/c mice; mouse, in vivo, po) of the same compound?
A: no abnormalities were observed

Q: Which results are given for `O=c1cc(-c2ccc(O)cc2)oc2cc(O)cc(O)c12` [No. 5, Apigenin]?
A: GAG content [1, 3]: 33.3 ± 0.7 µg/mL; Relative amount of GAG [1, 4]: (60.9) %; abnormalities observed for a week after administration (BALB/c mice; mouse, in vivo, po): no abnormalities were observed

Q: Which GAG content [1, 3] does the source give for `COc1ccc([C@@H]2CC(=O)c3c(O)cc(O)cc3O2)cc1O` [No. 41, Hesperetin] here?
A: 28.7 ± 0.4 µg/mL

Q: What about the “Relative amount of GAG” value [1, 4] of the same compound?
A: (48.6) %

Q: What about the “abnormalities observed for a week” value (BALB/c mice; [5]) of the same compound?
A: no abnormalities were observed

Q: For `O=c1c(O)c(-c2ccc(O)c(O)c2)oc2cc(O)ccc12` [No. 16, Fisetin], which GAG content [1, 3] is on record?
A: 30.1 ± 0.9 µg/mL

Q: And the “Relative amount of GAG” value [1, 4]?
A: (55.7) %

Q: What about the LD50 (Mouse) of the same compound?
A: 180 mg/kg

Q: With `O=c1cc(-c2ccc(O)c(O)c2)oc2cc(O)cc(O)c12` [No. 8, Luteolin] as the compound, how does the GAG content [1, 3] read?
A: 28.6 ± 0.5 µg/mL

Q: And the “Relative amount of GAG” value [1, 4]?
A: (52.2) %

Q: What about the “abnormalities observed for a week” value (BALB/c mice; mouse, in vivo, po) of the same compound?
A: no abnormalities were observed

Q: Which GAG content [1, 3] does the source give for `COc1ccc([C@@H]2CC(=O)c3c(O)cc(O[C@@H]4O[C@H](CO[C@@H]5O[C@@H](C)[C@H](O)[C@@H](O)[C@H]5O)[C@@H](O)[C@H](O)[C@H]4O)cc3O2)cc1O` [No. 42, Hesperidin] here?
A: 24.0 ± 0.6 µg/mL

Q: What about the “Relative amount of GAG” value [1, 4] of the same compound?
A: (42.8) %

Q: What about the “abnormalities observed for a week” value (BALB/c mice; [5]) of the same compound?
A: no abnormalities were observed

Q: With `O=c1c(O)c(-c2ccc(O)cc2)oc2cc(O)cc(O)c12` [No. 17, Kaempferol] as the compound, how does the GAG content [1, 3] read?
A: 30.5 ± 0.3 µg/mL

Q: And the “Relative amount of GAG” value [1, 4]?
A: (55.7) %

Q: And the “abnormalities observed for a week” value (BALB/c mice; mouse, in vivo, po)?
A: no abnormalities were observed

Q: For `COc1ccc(-c2cc(=O)c3c(O)cc(O)cc3o2)cc1` [No. 11, Acacetin], which GAG content [1, 3] is on record?
A: 24.2 ± 0.3 µg/mL

Q: What about the “Relative amount of GAG” value [1, 4] of the same compound?
A: (44.8) %

Q: And the “abnormalities observed for a week” value (BALB/c mice; mouse, in vivo, po)?
A: no abnormalities were observed

Q: What does the source list for `O=c1cc(-c2ccccc2)oc2cc(O)c(O)c(O)c12` [No. 15, Baicalein]?
A: GAG content [1, 3]: 7.67 ± 0.5 µg/mL; Relative amount of GAG [1, 4]: (68.3) %
